According to patent US11053204B2, “Pyrimidinyloxy benzene derivatives as herbicides” (FMC Corporation, priority 2015, dated 2021):

Key:
Type in all cases: in vivo
[1] = tested on: galium (catchweed bedstraw, Galium aparine); test: Test C preemergence, plant response rating
[2] = tested on: chickweed (common chickweed, Stellaria media); test: Test C postemergence, plant response rating; conditions: Stellaria media, post-emergence
Procedure, shortened: (§1)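 After sowing in loam–sand blend or silt loam, pots were sprayed preemergence; separately grown 1- to 4-leaf plants were sprayed postemergence. Following 13 to 15 d under greenhouse conditions, injury was rated visually on a 0 to 100 scale.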

[3] = tested on: wheat (winter wheat, Triticum aestivum); test: Test C postemergence, plant response rating; conditions: Triticum aestivum, post-emergence
Procedure, shortened: as §1

[4] = tested on: velvetleaf (Abutilon theophrasti); test: Test C postemergence, plant response rating; conditions: Abutilon theophrasti, post-emergence
Procedure, shortened: as §1

[5] = tested on: nutsedge, yellow (yellow nutsedge, Cyperus esculentus); test: Test C postemergence, plant response rating; conditions: Cyperus, post-emergence
Procedure, shortened: as §1

[6] = tested on: barnyardgrass (Echinochloa crus-galli); test: Test C postemergence, plant response rating; conditions: Echinochloa crus-galli, post-emergence
Procedure, shortened: as §1

[7] = tested on: lambsquarters (Chenopodium album); test: Test C postemergence, plant response rating; conditions: Chenopodium album, post-emergence
Procedure, shortened: as §1

[8] = tested on: ragweed (common ragweed, Ambrosia elatior); test: Test C postemergence, plant response rating; conditions: Ambrosia artemisiifolia, post-emergence
Procedure, shortened: as §1

[9] = tested on: morningglory (Ipomoea coccinea); test: Test C postemergence, plant response rating; conditions: Ipomoea, post-emergence
Procedure, shortened: as §1

[10] = tested on: oat, wild (wild oat Avena fatua); test: Test C postemergence, plant response rating; conditions: Avena fatua, post-emergence
Procedure, shortened: as §1

[11] = tested on: blackgrass (Alopecurus myosuroides); test: Test C postemergence, plant response rating; conditions: Alopecurus myosuroides, post-emergence
Procedure, shortened: as §1

[12] = tested on: ryegrass, Italian (Italian ryegrass, Lolium multiflorum); test: Test C postemergence, plant response rating; conditions: Lolium multiflorum, post-emergence
Procedure, shortened: as §1

[13] = tested on: johnsongrass (Sorghum halepense); test: Test C preemergence, plant response rating
[14] = tested on: barnyardgrass (Echinochloa crus-galli); test: Test C preemergence, plant response rating; conditions: Echinochloa crus-galli, pre-emergence, Preemergence
[15] = tested on: pigweed (Amaranthus retroflexus); test: Test C preemergence, plant response rating; conditions: Preemergence
[16] = 62 g ai/ha, scale 0 to 100 (0 no effect, 100 complete control)
[17] = 125 g ai/ha, scale 0 to 100 (0 no effect, 100 complete control)

N#Cc1cccc(Oc2ncc(Cl)cn2)c1CCCCC(F)(F)F [Compound 73, 3-[(5-chloro-2-pyrimidinyl)oxy]-2-(5,5,5-trifluoropentyl)benzonitrile]
Plant response rating, Galium ([1]; 16 g ai/ha, scale 0 to 100): 5
Plant response rating, Galium ([1]; 31 g ai/ha, scale 0 to 100): 10
Plant response rating, Galium ([1]; 62 g ai/ha, scale of 0 to 100): 100
Plant response rating, Galium ([1]; 125 g ai/ha, scale of 0 to 100): 100
pest or weed control at 16 g/ha ([2]; 16 g ai/ha, scale 0 to 100): 80%
pest or weed control at 31 g/ha ([2]; 31 g ai/ha, scale 0 to 100): 80%
pest or weed control at 62 g/ha [2, 16]: 90%
pest or weed control at 125 g/ha [2, 17]: 85%
plant injury at 16 g/ha ([3]; 16 g ai/ha, scale 0 to 100): 0%
plant injury at 31 g/ha ([3]; 31 g ai/ha, scale 0 to 100): 5%
plant injury at 62 g/ha ([3]; 62 g ai/ha, scale 0 to 100 (0 no effect, 100 complete control), read-out: Wheat plant response rating): 5%
plant injury at 125 g/ha [3, 17]: 5%
pest or weed control at 16 g/ha ([4]; 16 g ai/ha, scale 0 to 100): 40%
pest or weed control at 31 g/ha ([4]; 31 g ai/ha, scale 0 to 100): 60%
pest or weed control at 62 g/ha ([4]; 62 g ai/ha, scale 0 to 100 (0 no effect, 100 complete control), read-out: Velvetleaf plant response rating): 70%
pest or weed control at 125 g/ha [4, 17]: 75%
pest or weed control at 16 g/ha ([5]; 16 g ai/ha, scale 0 to 100): 5%
pest or weed control at 31 g/ha ([5]; 31 g ai/ha, scale 0 to 100): 15%
pest or weed control at 62 g/ha [5, 16]: 20%
pest or weed control at 125 g/ha [5, 17]: 30%
pest or weed control at 16 g/ha ([6]; 16 g ai/ha, scale 0 to 100): 10%
pest or weed control at 31 g/ha ([6]; 31 g ai/ha, scale 0 to 100): 15%
pest or weed control at 62 g/ha [6, 16]: 20%
pest or weed control at 125 g/ha [6, 17]: 30%
pest or weed control at 16 g/ha ([7]; 16 g ai/ha, scale 0 to 100): 75%
pest or weed control at 31 g/ha ([7]; 31 g ai/ha, scale 0 to 100): 80%
pest or weed control at 62 g/ha [7, 16]: 90%
pest or weed control at 125 g/ha [7, 17]: 98%
pest or weed control at 16 g/ha ([8]; 16 g ai/ha, scale 0 to 100): 50%
pest or weed control at 31 g/ha ([8]; 31 g ai/ha, scale 0 to 100): 55%
pest or weed control at 62 g/ha [8, 16]: 60%
pest or weed control at 125 g/ha [8, 17]: 65%
pest or weed control at 16 g/ha ([9]; 16 g ai/ha, scale 0 to 100): 70%
pest or weed control at 31 g/ha ([9]; 31 g ai/ha, scale 0 to 100): 75%
pest or weed control at 62 g/ha [9, 16]: 85%
pest or weed control at 125 g/ha [9, 17]: 75%
pest or weed control at 16 g/ha ([10]; 16 g ai/ha, scale 0 to 100): 5%
pest or weed control at 31 g/ha ([10]; 31 g ai/ha, scale 0 to 100): 5%
pest or weed control at 62 g/ha [10, 16]: 5%
pest or weed control at 125 g/ha [10, 17]: 10%
pest or weed control at 16 g/ha ([11]; 16 g ai/ha, scale 0 to 100): 10%
pest or weed control at 31 g/ha ([11]; 31 g ai/ha, scale 0 to 100): 5%
pest or weed control at 62 g/ha [11, 16]: 40%
pest or weed control at 125 g/ha [11, 17]: 35%
pest or weed control at 16 g/ha ([12]; 16 g ai/ha, scale 0 to 100): 5%
pest or weed control at 31 g/ha ([12]; 31 g ai/ha, scale 0 to 100): 5%
pest or weed control at 62 g/ha [12, 16]: 10%
pest or weed control at 125 g/ha [12, 17]: 20%
Plant response rating, Johnsongrass ([13]; 16 g ai/ha, scale 0 to 100): 0
Plant response rating, Johnsongrass ([13]; 31 g ai/ha, scale 0 to 100): 40
Plant response rating, Johnsongrass ([13]; 62 g ai/ha, scale 0 to 100): 80
Plant response rating, Johnsongrass ([13]; 125 g ai/ha, scale of 0 to 100): 95
pest or weed control at 62 g/ha ([14]; 62 g ai/ha, scale of 0 to 100): 100%
pest or weed control at 125 g/ha ([14]; 125 g ai/ha, scale of 0 to 100): 100%
pest or weed control at 16 g/ha ([14]; 16 g ai/ha, scale 0 to 100): 15%
pest or weed control at 31 g/ha ([14]; 31 g ai/ha, scale 0 to 100): 80%
Plant response rating, Pigweed ([15]; 125 g ai/ha, scale of 0 to 100): 100
Plant response rating, Pigweed ([15]; 16 g ai/ha, scale 0 to 100): 90
Plant response rating, Pigweed ([15]; 31 g ai/ha, scale 0 to 100): 95
Plant response rating, Pigweed ([15]; 62 g ai/ha, scale 0 to 100): 100
